The text below walks through data of paper PMC9085577, “Discovery of a Potent and Orally Active Dual GPBAR1/CysLT1R Modulator for the Treatment of Metabolic Fatty Liver Disease” (Frontiers in Pharmacology, 2022).

The structures appear in SMILES notation.

This experiment deals with eWAT and colon mRNA expression. As to the kind of experiment: Quantitative real-time PCR of eWAT and colon of HFD-F mice. It is filed as in vivo. The following applies: 30 mg/kg/day by gavage. From the text: C57BL/6J male mice were fed a high fat diet (HFD) containing 59 KJ% fat plus 1% cholesterol, w/o sugar (ssniff ® EF R/M acc. D12330 mod. 22,7 ME/kg) and fructose (HFD-F) in drinking water (42 g/L), or normal chow diet for 61 days. Food intake was estimated as the difference of weight between the offered and the remnant amount of food at 3-days intervals. The food was provided as pressed pellets and the residual spillage was not considered. After 7 days, HFD-F mice were randomized to receive HFD-F alone or in combination with compound 2 (30 mg/kg/day) by gavage until the end of the experiment. Doses of each agent were chosen according to previously published data. Mice were housed under controlled temperature (22°C) and photoperiods (12:12-h light/dark cycle), allowed unrestricted access to standard mouse chow and tap water. The experimental protocol was approved by the Animal Care and Use Committee of the University of Perugia and by the Italian Minister of Health and Istituto Superiore di Sanità (Italy) and was in agreement with the European guidelines for use of experimental animals (permission n. 583/2017-PR). The general health of the animals was monitored daily by the Veterinarian in the animal facility. At the day of sacrifice, fed mice were deeply anesthetized with a mixture of tiletamine hypochloride and zolazepam hypochloride/xylazine at a dose of 50/5 mg/kg and sacrificed before 12 a.m.
RNA was extracted from eWAT and colon with Direct-zol™ RNA MiniPrep w/Zymo-Spin™ IIC Columns (Zymo Research, Irvine, CA) and it was subjected to reverse transcription with FastGene Scriptase Basic Kit (Nippon Genetics Europe) in a 20 μL reaction volume.
For real time PCR, 50 ng cDNA were amplified in a 20 μL solution containing 200 nM of each primer and 10 μL of SYBR Select Master Mix (Thermo Fisher Scientific, Waltham, MA, United States). All reactions were performed in triplicate, and the thermal cycling conditions were as follows: 10 min at 95°C, followed by 40 cycles of 95°C for 10 s and 60°C for 45 s with QuantStudio™ 3 Real-Time PCR System (Applied Biosystems). The relative mRNA expression was calculated and expressed as 2−(ΔΔCt). Expression of the respective gene was normalized against Gapdh mRNA as an internal control. The following primers for Real-Time PCR were used: mouse-Gapdh: ctgagtatgtcgtggagtctac and gttggtggtgcaggatgcattg; mouse-Srebf1: gatcaaagaggagccagtgc and tagatggtggctgctgagtg; mouse-Fasn: tcaagatgaaggtggcagaggtgct and ttgagcagtgccgggattcgg; mouse-Pgc1α: cttagcactcagaaccatgcag and aatgctcttcgctttattgctc; mouse-Fxr: actggaccacgaagatcagatt and gagcgtactcctcctgagtcat; mouse-adiponectin: tgacagatcagctcgagtgg and cagtgccgtcagttcttgtg; mouse-Tnf-α: ccaccacgctcttctgtcta and agggtctgggccatagaact; mouse-ucp2: ttgcccgtaatgccattgtc and gcaagggaggtcatctgtca; mouse-cd11b gtcagagtctgcctccgtgt and cagggtctaaagccaggtca; mouse-pparγ: gccagtttcgatccgtagaa and aatccttggccctctgagat; mouse-Il-1β: gctgaaagctctccacctca and aggccacaggtattttgtcg; mouse-Gcg: ccaagattttgtgcagtggtt and ccttcagcatgcctctcaaa.
A general note: Quantitative PCR measures a nucleic acid by following its amplification.

As to `O=C(O)c1cccc(-c2ccc(OCc3ccc4ccccc4n3)cc2)c1` [Compound 2, 4'-(quinolin-2-ylmethoxy)-[1,1′-biphenyl]-3-carboxylic acid], the “colon expression of Gcg” value is recorded as “upregulated”, the “colon expression of Il-1β” value is recorded as “strongly reduced”, the “eWAT expression of Cd11b” value was “robustly reduced” and the “eWAT expression of Tnf-α” value is recorded as “robustly reduced”. Moreover, the “eWAT expression of Ucp2” value is on record as “upregulated”.
